In the assay the test system is cells expressing the HSV-TK gene product. Nature of the assay: Negative selection of pIRES-MAB-TK cultures with ganciclovir. The format is cell-based, Chinese Hamster. As to conditions: 5 days in the presence of ganciclovir, then an additional 10 days in growth media alone. As to the method:
For example, pIRES-MAB-TK cultures are grown for 5 days in the presence of the prodrug ganciclovir (Sigma), which kills cells expressing the HSV-TK gene product. After 5 days of negative selection, cells are grown for an additional 10 days in growth media alone at which time greater than 95% of cells die off. Resistant clones are then picked and expanded in 10 cm petri dishes. Cells are grown for 3 weeks, after which time a portion is reanalyzed for recombinant protein expression, for example, by western blot, RT-PCR, and/or PCR. DNA is analyzed for the presence of the pIRES-pro-TK or pIRES-MAB-TK vector by PCR using any set of primers that can specifically detect the presence or absence of the pIRES vector, for example, according to methods as previously described in Grasso et al. (1998).

Structures are written as SMILES.

In the case of `Nc1nc(O)c2ncn(COC(CO)CO)c2n1` [ganciclovir], the cells die off entry is on record as “greater than 95%”.

Source of the values: patent US20060258007A1, “Regulated vectors for selection of cells exhibiting desired phenotypes” (priority 2005, published 2006).
